{"source": "patent US20160017312A1", "about": "“METHOD FOR MODULATING A BACTERIAL INVASION SWITCH” (priority 2012, published 2016)", "system": "S. meliloti cells", "experiment": "Whole cell motility (swimming colonies) with added calcium", "assay_type": "cell-based, Sinorhizobium meliloti", "details": "1 mM Ca; protease active, non-swimming S. meliloti cells", "protocol": "Example 2. In no calcium or low calcium condition, most of ExoRm is in the monomeric form sensitive to protease digestion. Adding 1 mM or more Ca will turn ExoRm into dimeric form, preventing protease from binding and digesting ExoRm. So Ca is an indirect inhibitor of the protease. […] This is a typical indirect inhibitor. In the same fashion, most ions are indirect inhibitors of ExoRm protease.\nExample 1. Whole cell motility assay: The whole cell motility assay is based on the fact that inhibition of the protease lead to ExoRm increase and the cell becoming motile. The initial condition may be set with either low pH or low ion concentration, so that S. meliloti cells will form non-swimming colonies. The putative direct or indirect inhibitors can be mixed with S. meliloti cells in soft agar plates. The ones that can make S. meliloti cells to form swimming colonies are the potential direct or indirect inhibitors.\nBacterial cell motility was examined using swarming plates containing 0.3% agar as described previously with some modifications. Briefly, fresh cell cultures were prepared and diluted to OD600 of 0.1. Then 2 μL of each diluted culture was inoculated into LB/MC soft agar plate and incubated for 2-3 days to determine colony size."}
{"smiles": "[Ca+2]", "note": "[Ca]", "values": [{"measurement": "effect on swimming of S. meliloti cells", "value": "turn protease active, non-swimming S. meliloti cells into swimming cells"}]}
